Data taken from US20210008104A1, “COMPOSITIONS AND METHODS FOR INHIBITING HIV-1 REVERSE TRANSCRIPTASE” (The United States of America, as represented by the …, priority 2017, published 2021).
Entries after “also recorded” stand apart in the source; their conditions may differ.

Tests used:
[1] = target: T1, pol β-nicked DNA complexes (Homo sapiens, UniProt P06746); assay: Time-lapse crystallography of the reverse reaction
T1 construct: made in house
Experimental: Binary complex crystals with nicked DNA were grown as previously described43. The time-lapse crystallography was performed as before11 and is briefly summarized here. Binary pol β/DNA complex crystals were first transferred to a cryosolution containing 15% ethylene glycol, 50 mM imidazole, pH 7.5, 20% PEG3350, 90 mM sodium acetate, 2 mM PNP and 50 mM CaCl2) for 1 h. These ground state (GS) ternary complex crystals were then transferred to a cryosolution containing 200 mM MgCl2 for varying times. All reactions were stopped by freezing the crystals at 100K before data collection at the home source, 1.54 Å, or the Advanced Photon Source, 1.0 Å (Argonne National Laboratory). In house data collection was done on a SATURN92 CCD detector system mounted on a […] rotating anode generator. This allows for anomalous data detection after phasing by molecular replacement. […] Initial models were determined using molecular replacement with the open binary (PDB ID 3ISB) or closed ternary (PDB ID 2FMS) structures of pol β and all Rfree flags were taken from the starting model. […] The metal-ligand coordination restraints were generated by ReadySet (PHENIX) and not used until the final rounds of refinement. […] Ramachandran analysis determined 100% of nonglycine residues lie in allowed regions and at least 97% in favored regions.

human DNA polymerase β [2] = target: T2, human DNA polymerase β (Homo sapiens, UniProt P06746); settings: [32P]PPi into dCTP, slope/enzyme-DNA complex
Experimental: Pyrophosphate exchange assay. Pol β (2.5 μM) was pre-incubated with 500 nM unlabeled nicked DNA substrate containing a matched primer terminal base pair (G-C, template-primer) in reaction buffer with 20 mM MgCl2 and manually mixed (1:1, v/v) with a prewarmed solution of reaction buffer, 2 mM [^32P] PPi, and 100 μM dCTP. Aliquots were withdrawn at various time points and quenched with 1 vol. of 0.3 M EDTA. Quenched reactions mixtures were applied to PEI cellulose plates and developed in 0.3 M potassium phosphate buffer, pH 8.0. Plates were scanned followed by quantitation using a phosphorimager and ImageQuant software.

human DNA polymerase β [3] = target: T2, human DNA polymerase β; assay: Single-turnover analysis of reverse reaction (pyrophosphorolysis / PNP-dependent) on nicked DNA; type: biochemical; parameters: made in house
Experimental: Reaction buffer. All kinetic measurements were performed in a buffer containing 50 mM MES, 25 mM Tris, 25 mM ethanolamine (pH 7.5 adjusted at 37° C.), 100 mM KCl, 10 mM MgCl2 supplemented with 10% glycerol, 100 μg/ml bovine serum albumin, 1 mM DTT, and 0.1 mM EDTA. […] DNA polymerase β was used to fill a 1-nucleotide gapped DNA substrate with either [^32P] dCTP or [^35S] dATP to create a 3'-radiolabeled nicked DNA substrate. The reaction mixture contained 50 mM Tris-Cl, pH 7.4 (37° C.), 100 mM KCl, 10 mM MgCl2, 1 mM DTT, 2.5 μM gapped DNA, […] [^32P] dCTP or [^35S] dATP. The single-nucleotide DNA substrate was similar to the nicked substrate described above, except the primer strand was one nucleotide shorter (3'-nucleotide deleted). Gap filling was initiated by addition of pol β and incubated at 37° C. for 5-10 min. The reaction was quenched by addition of 0.5 M EDTA (0.1 vol). To remove enzyme and unincorporated nucleotides, the mixture was extracted with phenol-chloroform-isoamyl alcohol (25:24:1) followed by two passages through BioSpin 6 columns. Aliquots of the labeling reaction were removed before and following the extraction and removal steps to determine final DNA substrate concentration. Pre- and post-aliquots (1 μl) were spotted onto PEI cellulose plates and developed in 0.375 M KH2PO4, pH 4.0. The ratio (post/preextraction) was used to correct the initial DNA concentration for loss or dilution of substrate. Kinetic parameters for the reverse reaction were determined under single turnover conditions (E/DNA=10) at 37° C. […] Time courses were initiated by mixing with an equal volume of a 20 mM MgCl2 and 50 μM dNTP trap solution in reaction buffer. The dNTP trap prevents re-insertion of radiolabeled product dNTP and corresponds to the identity of the nucleotide triphosphate produced during the reaction. […] EDTA (0.1 or 0.2 M) was used as the quenching agent. Substrates and products were resolved by TLC in either 0.2 or 0.3 M NaPi, pH 7.0 buffer. Kinetic analysis. Single-turnover time courses were fit to a single exponential equation to yield the first-order rate constants (kobs) at a given concentration of GMPPNP, PPi or PNP. Under these conditions, kobs was dependent on the concentration of substrate. A secondary plot of the concentration dependence of kobs was hyperbolic and fitted by nonlinear least-squares method to equation (1) where kmax is the intrinsic rate constant for the step limiting the first nucleotide insertion (forward reaction) or removal (reverse reaction). kobs=kmax[S]/[…] (1) […] Unless noted, kinetic constants represent best-fit parameters and their standard error.

human DNA polymerase β [4] = target: T2, human DNA polymerase β; assay: Overall equilibrium constant determination (gapped vs nicked DNA); type: biochemical; parameters: made in house; settings: dCTP
Experimental: A mixture of 500 nM pol β with single-nucleotide gapped DNA (pol/DNA=10; templating G or C) containing various concentrations of PPi (500-2,000 μM) or PNP (20, 50, 100 μM) was mixed with an equal volume of 20 mM MgCl2 containing 60-100 nM dCTP or 50 μM dGMPPNP and incubated at 37° C. for various time intervals. Aliquots (10 μl) were withdrawn at various times and quenched with an equal volume of 0.3 M EDTA. The reactions were quenched after 10-80 s and reaction products separated on a sequencing gel. The substrate (gapped DNA) and product (nicked DNA) bands were quantitated, and the overall equilibrium constant calculated; Keq=[nicked DNA][PPi]/[gapped DNA][dCTP] or [nicked DNA] [PNP]/[gapped DNA][dGMPPNP]. The mean and standard error for 6 independent determinations are reported in the text.

human DNA polymerase β [5] = target: T2, human DNA polymerase β; assay: Removal of chain-terminated or mismatched primer termini by reverse reaction; type: biochemical; parameters: made in house; settings: G-A or G-T primer terminal mismatch
Experimental: The removal of a terminated primer terminus by the reverse reaction required enzymatic synthesis of the nicked DNA substrate. A pre-incubated mixture of 4 μM pol and 0.4 μM one-nucleotide gapped DNA was mixed 1:1 (v/v) with 20 mM MgCl2 and 0.2 μM various triphosphates of chain-terminating nucleotides ([…], or dFdCTP). The gap-filling reaction proceeded at 37° C. for 10-20 min to generate a terminated nicked DNA substrate. An aliquot was removed and quenched to verify complete gap filling (16-mer). The reverse reaction was initiated by addition of an equal volume of 10 mM MgCl2 and 250 μM PPi or PNP. An aliquot (time=3 min) was removed, quenched, and analyzed on a denaturing gel. The removal of a terminal mismatch by a reverse reaction was followed by incubation of […] Pol with 100 nM 5'-^32P-labeled nicked DNA substrate with a matched (G-C) or mismatched (G-A or G-T) primer terminal base pair for 5 min at 37° C. This was mixed with a solution of 20 mM MgCl2 and 2 mM PPi or PNP (1:1, v/v) to initiate the reaction.

human DNA polymerase β [6] = target: T2, human DNA polymerase β; assay: Qualitative reverse reaction assay with PPi analogs; type: biochemical; parameters: made in house; settings: 1 mM PPi analog, 10 mM MgCl2, 5′-32P-labeled nicked DNA
Experimental: Reverse reaction assay. Pol β (1 μM) was pre-incubated with 100 nM nicked DNA containing either a matched or mismatched primer terminus for 5 min at 37° C. in reaction buffer. A solution with 20 mM MgCl2 containing 2 mM PPi or pyrophosphate analog in reaction buffer was used to initiate the reaction. Following mixing, the final concentrations were 500 nM pol β, 50 nM nicked DNA, 10 mM MgCl2, and 1 mM PPi or pyrophosphate analog. Aliquots (5 or 10 μl) were removed at various times and quenched in an equal volume of 0.3 M EDTA, pH 8.0. Reaction substrates and products were separated and visualized as described above.

human DNA polymerase β [7] = target: T2, human DNA polymerase β; assay: Gap filling DNA synthesis kinetic assay (single-turnover insertion); type: biochemical; parameters: made in house
Experimental: Gap filling DNA synthesis kinetic assay. To measure the rate of the first insertion (kpol) and apparent equilibrium nucleotide dissociation constant (Kd), single-turnover kinetic assays (enzyme/DNA=10) were performed as described previously. Briefly, a pre-incubated solution of enzyme and DNA was rapidly mixed with various concentrations of MgCl2 and dGMPPNP using a Kintek RQF-3 rapid quench-flow. Reactions were quenched with 0.25 M EDTA.
where S=dGMPPNP, PPi, or PNP. For the insertion of dGMPPNP, the secondary plot was fit to a quadratic equation (equation (2)) due to its high affinity relative to the enzyme concentration.
kobs=(kpol)(((Kd+[dGMPPNP]+[EDNA])((Kd+[dGMPPNP]+[EDNA])^2)−(4[dGMPPNP][EDNA]))^0.5)/2[EDNA] (2)

[8] = single-turnover gap filling, relative to natural nucleotide

## O=P(O)(O)NP(=O)(O)O [PNP, imidodiphosphate]
[1]; short Mg2+ soak of PNP-Ca2+ ternary complex crystals
  complexes that had undergone a reverse reaction (occupancy refinement): approximately 40%

## O=P(O)(O)OP(=O)(O)O [PPi, pyrophosphate]
Human DNA polymerase β [2]
  observed rate for the exchange reaction: 0.028 s⁻¹
[1]; binary pol β-nicked DNA crystals soaked with ligand
  reverse reaction in crystals: did not generate dNTP
Human DNA polymerase β [3]; 1 mM PPi, 3′-[32P]dAMP primer terminus, single-turnover
  kobs for removal of 32P-labeled dAMP: 0.030 s⁻¹
Human DNA polymerase β [3]; 1 mM PPi, 3′-[35S]dAMP (phosphorothioate) primer terminus, single-turnover
  kobs for removal of 35S-labeled dAMP: 0.039 s⁻¹
Human DNA polymerase β [3]; nicked DNA with 3′-[32P]dCMP, single-turnover, secondary plot of kobs, read-out: apparent PPi binding affinity (Kd)
  Kd: ~90 µM
Human DNA polymerase β [3]; nicked DNA, single-turnover (enzyme/DNA>1)
  observed rate constant for the reverse reaction (krev): ~0.03 s⁻¹
Human DNA polymerase β [3]; removal of 3′-terminal Rp-phosphorothioate nucleotide vs dAMP
  phosphorothioate (thio-elemental) effect krev(O)/krev(S): no phosphorothioate elemental effect
Human DNA polymerase β [4]; 1000 μM PPi
  calculated equilibrium constant: 62,700
Human DNA polymerase β [4]; 2000 M PPi
  calculated equilibrium constant: 82,300
Human DNA polymerase β [4]; different PPi concentrations, mean and standard error of 6 determinations
  overall equilibrium constant Keq: 68,700±7,200
Human DNA polymerase β [5]
  removal of a 3′ mismatched nucleotide: very poor

## O=P(O)(O)C(Cl)(Cl)P(=O)(O)O [clodronate]
Human DNA polymerase β [6]
  ability to serve as substrate for the reverse reaction (qualitative): poor

## Nc1nc2c(ncn2[C@H]2C[C@H](O)[C@@H](COP(=O)(O)OP(=O)(O)NP(=O)(O)O)O2)c(=O)[nH]1 [dGMPPNP, 2′-deoxyguanosine-5′-[(β, γ)-imido]triphosphate]
Human DNA polymerase β [7]; binds tightly and is inserted slowly
  inhibition of the forward reaction: good inhibitor
Human DNA polymerase β [7]; [8]
  binding affinity: increased
  rate of insertion: strongly diminished; also recorded: two orders of magnitude

## CC(O)(P(=O)(O)O)P(=O)(O)O [etidronate]
Human DNA polymerase β [6]
  ability to serve as substrate for the reverse reaction (qualitative): moderate

## NCCC(O)(P(=O)(O)O)P(=O)(O)O [pamidronate]
Human DNA polymerase β [6]
  ability to serve as substrate for the reverse reaction (qualitative): poor
